{
  "source": "ChEMBL document CHEMBL4184202",
  "about": "“New lignans attenuating cognitive deterioration of Aβ transgenic flies discovered in Acorus tatarinowii” (Bioorg Med Chem Lett, 2018)",
  "note": "Active and inactive are the calls of the source. The calls are words filed in the database; no cut-off is given here.",
  "data": [
    {"system": "Drosophila melanogaster", "experiment": "Antialzheimer disease activity in heterozygous transgenic Alzheimer's disease model fruit fly under control of elav-Gal4'C155 (P35*H29.3) expressing Abeta42 assessed as attenuation of cognitive deterioration by measuring increase in performance index by Pavlovian olfactory test", "type": "functional, organism-based", "values": [
      {"smiles": "CC12CC3CC(C)(C1)CC(N)(C3)C2", "Activity": "Active"},
      {"smiles": "COc1cc([C@H]2O[C@@H](c3ccc(OC)c(OC)c3)[C@H](C)[C@@H]2C)ccc1O", "Activity": "Active"},
      {"smiles": "COc1ccc(C(=O)[C@H]2CO[C@@H](c3ccc(OC)c(OC)c3)[C@@H]2C)cc1OC", "note": "(racemic)", "Activity": "Active"},
      {"smiles": "C/C=C/c1cc(OC)c2c(c1)[C@@H](C)[C@H](c1ccc(OC)c(OC)c1)O2", "note": "(relative stereo)", "Activity": "Active"},
      {"smiles": "C/C=C/c1ccc(O[C@H](C)[C@@H](O)c2cc(OC)c(OC)c(OC)c2)c(OC)c1", "note": "(relative stereo)", "Activity": "Active"}
    ]}
  ]
}
